Measurements: patent US20110229411A1, “USE OF P2X7 PATHWAY FOR ASSESSING THE SENSITIVITY OF A SUBJECT TO A CANCER TREATMENT” (INSTITUT GUSTAVE ROUSSY, priority 2008, published 2011)

What was measured:
EL4 thymoma tumors = experiment: Chemotherapy of EL4 tumors established in mice; format: in vivo
Description: FIG. 17. The anti-cancer activity of oxaliplatin depends on P2X7 and the NALP3 inflammasome. FIG. 17a,b,c. Therapeutic efficacy of oxaliplatin on established tumors depends on the integrity of the immune system on the P2X7/NALP3/casp-1 axis. EL4 thymoma tumors were established in syngenic mice bearing the indicated genotypes (a-c) or injected with anti-CD8 antibody (a). When the tumor reached 70-90mm^2 in size, mice were either left untreated or were treated with oxaliplatin. Each treatment group included 5-6 mice (X±SEM), and each experiment was repeated three times with similar results. * p<0.05. d. Caspase 1 is required for the immune response promoted by oxaliplatin chemotherapy. EG7 tumors established in the thigh were treated with one systemic injection of oxaliplatin. Inguinal lymph node cells were harvested 5 days later, and the gangliocytes were restimulated in vitro. IFNγ secretion was assessed by ELISA. Results (means of triplicates ±SEM, n=3) are representative of one typical experiment out of three. ^*P<0.01. FIG. 17d. The efficacy of anthracyclines against established colon cancer is dependent on IL-1β. CT26 tumors established for 10 days in WT mice were treated with one local injection of doxorubicin in the absence or presence of neutralizing anti-IL-1β Ab (n=10/group, *p<0.05). FIG. 17e. A single-nucleotide polymorphism (SNP) in P2X7 (rs3751143) affects the long-term efficacy of conventional anti-cancer therapy in breast cancer patients. Comparative Kaplan-Meier estimates of time to metastasis in two groups of patients bearing the normal (Glu496Glu) or loss-of-function (Glu496Ala) P2X7 alleles. The time to metastatic progression was analyzed in 225 women with non-metastatic breast cancer who received adjuvant chemotherapy with anthracylines.
Wild type or loss-of-function C57BL/6 mice were injected s.c. with 10^6 EL4 cells into the right flank. Alternatively, wild-type BALB/c mice were injected with 5.10^5 CT26 cells into the right flank. Mice were then randomly assigned to treatment groups of 4-6 mice each. The tumor surface was monitored using a caliper. When tumor size reached 70-90 mm^2 for EL4 (9-12 days post-injection) or 60-80 mm^2 for CT26 (8-10 days post-injection), mice received chemotherapy (Apetoh et al., 2007). Mice bearing EL4 tumors were injected with oxaliplatin (5 mg/kg i.p), while mice bearing CT26 tumors were injected with doxorubicin (50 μl, 4 mM i.t). In some experiments, CT26 tumor-bearing mice received two injections (on day 0 and day 2 after the commencement of chemotherapeutic treatment) of IL-1Ra (McIntyre et al., 1991) (100 μg), anti-IL-1 antibody (100 μg) or hamster serum as a control.

EG7 cells = experiment: ATP assays (extracellular and intracellular ATP, luciferin-luciferase) on oxaliplatin-treated tumor cells; format: cell-based, mouse
Description: FIG. 1: ATP release by dying tumor cells dictates the immunogenicity of cell death. FIG. 1a. Accumulation of ATP in the extracellular space following exposure of tumor cells to chemotherapy. EG7 were treated with oxaliplatin, and ATP release into the supernatant was monitored. FIG. 1b. […] EG7 were treated with oxaliplatin for 24 hours and subsequently with antimycin A and deoxyglucose (A/D) for 20 min. Data (means±SEM of triplicates) of one representative experiment out of three are depicted. FIG. 1c. Failure of dying tumor cells depleted from ATP to elicit an OVA specific immune response. Live or oxaliplatin-treated EG7 cells were injected into the footpad of C57B1/6 mice. Five days later, popliteal lymph node cells were recovered and restimulated with the OVA holoprotein for 72 hours before quantification of IFNγ secretion. The levels of IFNγ secretion between mice immunized with ATP-depleted or not depleted EG7 were compared in three independent experiments. FIG. 1d. Inhibition of purinergic receptors with oxidized ATP (oxiATP) abolishes T cell priming by oxaliplatin-treated EG7 cells. […] Five days later, the local immune response was measured as in (a). […]
Plates were read in a Fluostar luminometer (BMG Labtech).

MCA205 cells = experiment: Cell death induction for vaccination, FACS analysis of Annexin V+ DAPI+ cells; format: cell-based, mouse; conditions: MCA205, 1 μM mitoxantrone, 24 hours
Description: Anti cancer vaccination was assessed using a previously described setting (Casares et al., 2005; Obeid et al., 2007). CT26 cells were cultured with either PBS or 20 μM doxorubicin, and MCA205 with either PBS or 1 μM mitoxantrone for 24 h. All these treatments led to ˜50% of Annexin V^+ DAPI^+ cells, as assessed by FACS analysis at 24 hours. After careful washes, cells were resuspended in sterile PBS. CT26 cells were incubated in the presence or in the absence of antimycin A and deoxyglucose (2 μg/ml and 30 mM, respectively) for 20 min, or in the presence or in the absence of Oxi-ATP ([…]). After 3 washes, 3×10^6 dying CT26 cells (or 3×10^5 MCA205 cells) were injected subcutaneously into the left flank of mice. In some experiments, 100 μg of IL-1Ra (Anakinra) was injected along with the dying cells. Seven days later, mice were rechallenged into the right flank with 5×10^5 live CT26 cells (or, alternatively, 3.10^4 live MCA205 cells). Tumor growth was then monitored weekly.

OT-1 CD8+ T cells = experiment: In vitro stimulation of OT-1 cells by BM-DC loaded with oxaliplatin-treated EG7; format: cell-based, mouse; conditions: rIL-1β 100 ng/ml or IL-12 10 ng/ml added to cocultures
Description: FIG. 15. IL-1β-dependent CTL priming by dying tumor cells in vitro and in vivo. FIG. 15a. MyD88 is required at the level of the host but not that of the APC. DC from WT mice were first loaded with antigen (OVA holoprotein with C/P adjuvant, live or oxaliplatin-treated EG7 cells) and then injected into the footpad of into WT or MyD88^−/− recipients (n=6 mice/group). Five days later, the local immune response was measured as in FIG. 2d,e. Results of one typical experiment out of three are depicted. FIG. 15b. Casp-1 and IL-1β-dependent OT-I priming in vitro. The differentiation of IFNγ producing CD8^+ OT-1 cells was induced by incubating naïve OVA-specific TCR transgenic OT-1 lymphocytes with syngeneic BM-DC (derived from WT or Casp-1^−/− mice) that were loaded with oxaliplatin-treated EG7 for 2 days in vitro. […] Exogenous addition of rIL-1β (100 ng/ml) or IL-12 (10 ng/ml) to cocultures of Casp-1^−/− DC loaded with dying tumor cells and incubated with OT1 restored T cell priming. […] FIG. 15c. Specific and direct polarizing effects of IL-1β on T lymphocytes in vitro. Purified CD3^+ CD8^+ T cells derived from naïve WT mice were stimulated with anti-CD3 and anti-CD28 mAb for 5 days in the presence of the indicated cytokines (10 ng/ml for IL-12p70, 100 ng/ml for IL-1β, IL-6 and TNFα) -and IFNγ production was measured as in FIG. 3b. FIG. 15d. […]

[1] = test system: T cell priming for IFNγ production; experiment: Priming assay: dying EG7 cells injected into the footpad, IFNγ secretion of restimulated popliteal lymph node cells; format: in vivo, mice; conditions: cytokine co-injected with oxaliplatin-treated EG7: rIL-1β 250 ng, rIL-12 50 ng, rIL-6 250 ng per footpad
Description: 1.10^6 CT26, EG7, or B16F10 cells were either left untreated or treated with doxorubicin (20 μM) or oxaliplatin (5 μg/ml) for 24 h. Cells were then injected into the footpad of syngenic mice. In some experiments, 20 or 100 μg of IL-1Ra (Anakinra) or 250 ng of recombinant murine IL-1β (or 250 ng of IL-6 or 50 ng of IL-12) was injected along with dying tumor cells into the footpad of mice. Alternatively, DC were cocultured with EG7 cells for 2 hours, followed by the purification of CD11c^+ cells with anti-CD11c mAb coupled to magnetic beads (Miltenyi Biotec, Paris, France) and injection of these purified DC into the footpad. Five days later, gangliocytes from popliteal lymph nodes were harvested, seeded in 96 U-well plates (3.10^5 cells per well), and restimulated with 1 mg/ml OVA protein. Restimulation with MCA205 or CT26 cells was performed using 3×10^4 tumor cells killed by 5 min heating at 42° C. followed by 1 cycle of freezing/thawing in liquid nitrogen. For B16F10, restimulation was achieved using gp100 peptide as previously described (Overwijk et al., 1998). As a positive control of T cell priming, mice were injected with OVA protein (1 mg) (or gp100 for B16F10) and the association of CpG (10 μg) and Poly I:C (5 μg). For CT26 priming experiments, cell lysate plus LPS (250 ng) was used as a positive control. Supernatants were harvested 72 hours later, and IFNγ secretion was assessed by ELISA. Alternatively, cells were stimulated with PMA (10 ng/ml) and ionomycin (1 μg/ml) for 1 h, followed by the addition of brefeldin A (10 μg/ml for 6 h at 37° C.) (Apetoh et al., 2007), surface staining with Abs specific for CD3, CD4 or CD8, fixation and permeabilization (Cytofix/cytoperm kit) and then labeled with antibodies specific for IFNγ. Immunofluorescence was analyzed on a LSRII flow cytometer (BD Biosciences) with FACSDiva software.

## O=C1[O][Pt]2([NH][C@@H]3CCCC[C@H]3[NH]2)[O]C1=O [oxaliplatin]
EL4 thymoma tumors; Casp1−/− mice versus WT controls
  response of EL4 tumors to oxaliplatin: responded less efficiently
EL4 thymoma tumors; IfnγR1−/− mice
  therapeutic efficacy on established EL4 tumors: lost its therapeutic efficacy
EL4 thymoma tumors; Il-12Rβ2−/− mice (and WT)
  therapeutic efficacy on established EL4 tumors: remained efficient
EL4 thymoma tumors; Nalp3−/− mice versus WT controls
  response of EL4 tumors to oxaliplatin: responded less efficiently
EL4 thymoma tumors; P2X7−/− mice versus WT controls
  response of EL4 tumors to oxaliplatin: responded less efficiently
EL4 thymoma tumors; T and B cell-deficient rag-2−/− mice
  therapeutic efficacy on established EL4 tumors: lost its therapeutic efficacy
EL4 thymoma tumors; T cell-deficient nu/nu mice
  therapeutic efficacy on established EL4 tumors: lost its therapeutic efficacy
EL4 thymoma tumors; immunocompetent WT mice, oxaliplatin 5 mg/kg i.p.
  control of EL4 tumor growth: efficient in controlling EL4 tumor growth
EL4 thymoma tumors; mice depleted from CD8+ T cells
  therapeutic efficacy on established EL4 tumors: lost its therapeutic efficacy
EG7 cells; EG7 treated with oxaliplatin for 24 hours
  intracellular ATP: Decrease of intracellular ATP
EG7 cells; EL4 thymomas and EG7 cells, oxaliplatin 5 μg/ml, 0-24 hours
  release of ATP into the supernatant: induced the release of ATP

## O=C1c2c(O)ccc(O)c2C(=O)c2c(NCCNCCO)ccc(NCCNCCO)c21 [mitoxantrone]
MCA205 cells
  Annexin V+ DAPI+ cells: ~50%

B1: IL-12: recombinant mouse IL-12 from R&D Systems (protein, UniProt P43431 23-215; P43432 23-335, looked up)
Interleukin-12 subunit alpha: RVIPVSGPARCLSQSRNLLKTTDDMVKTAREKLKHYSCTAEDIDHEDITRDQTSTLKTCLPLELHKNESCLATRETSSTTRGSCLPPQKTSLMMTLCLGSIYEDLKMYQTEFQAINAALQNHNHQQIILDKGMLVAIDELMQSLNHNGETLRQKPPVGEADPYRVKMKLCILLHAFSTRVVTINRVMGYLSSA
Interleukin-12 subunit beta: MWELEKDVYVVEVDWTPDAPGETVNLTCDTPEEDDITWTSDQRHGVIGSGKTLTITVKEFLDAGQYTCHKGGETLSHSHLLLHKKENGIWSTEILKNFKNKTFLKCEAPNYSGRFTCSWLVQRNMDLKFNIKSSSSSPDSRAVTCGMASLSAEKVTLDQRDYEKYSVSCQEDVTCPTAEETLPIELALEARQQNKYENYSTSFFIRDIIKPDPPKNLQMKPLKNSQVEVSWEYPDSWSTPHSYFSLKFFVRIQRKKEKMKETEEGCNQKGAFLVEKTSTEVQCKGGNVCVQAQDRYYNSSCSKWACVPCRVRS
OT-1 CD8+ T cells
  priming capacity of Casp-1−/− DC for OT-1 cells (IFNγ): restored the priming capacity
[1]
  T cell priming in Nalp3−/− or Casp1−/− mice: restored deficient T cell priming
